pKi: −log10 of the molar value.
Assays:
Adenosine receptor A2a [1] = target: T1, Adenosine receptor A2a (Homo sapiens, UniProt P29274); test: Inhibition of human adenosine 2A receptor
Adenosine receptor A2a [2] = target: T1, Adenosine receptor A2a; test: Inhibition of human adenosine 2A receptor at 2 uM
Adenosine receptor A2a [3] = target: T1, Adenosine receptor A2a; test: Inhibition of human adenosine 2A receptor at 32 uM

T1 sequence (P29274 whole entry): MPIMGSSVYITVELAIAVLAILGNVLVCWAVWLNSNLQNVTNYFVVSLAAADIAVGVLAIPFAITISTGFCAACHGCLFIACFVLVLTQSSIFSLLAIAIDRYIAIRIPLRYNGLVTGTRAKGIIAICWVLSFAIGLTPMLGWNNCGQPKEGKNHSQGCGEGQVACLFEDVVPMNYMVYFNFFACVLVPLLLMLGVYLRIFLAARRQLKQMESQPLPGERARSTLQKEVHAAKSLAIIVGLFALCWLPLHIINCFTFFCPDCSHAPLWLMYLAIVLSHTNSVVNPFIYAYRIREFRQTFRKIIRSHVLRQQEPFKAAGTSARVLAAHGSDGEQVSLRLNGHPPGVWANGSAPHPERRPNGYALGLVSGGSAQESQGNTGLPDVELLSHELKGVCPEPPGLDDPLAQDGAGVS

Structure (SMILES)	pKi (Adenosine receptor A2a [1])	other results
CCc1nc2sc(C(=O)c3cccc(Cl)c3)c(N)c2cc1C	5.04	–
Nc1ccc(-c2nc3c(N)cccc3[nH]2)cc1	< 4.00	–
Nc1ccc(Cl)c2c1C(=O)c1ccccc1C2=O	6.60	–
CN(C(=O)CSc1nc(N)nn1-c1ccccc1)c1ccccc1	< 4.00	–
Nc1nc(SCCCCC(=O)O)c2[nH]cnc2n1	< 4.00	–
Cc1ccc(Nc2nc(N)nc(CSCC(=O)NC3CC3)n2)cc1	< 4.00	–
COC(=O)c1c(N)oc2c(-c3ccc(C)cc3)c3c(C(=O)OC)c(N)oc3cc12	< 4.00	–
Cc1ccc(N2C(=O)c3cccc(N)c3C2=O)cc1	5.54	–
Cc1ccc(C(=O)CSc2nc(N)c(C#N)c(-c3cccs3)c2C#N)c(C)c1	< 4.00	–
CCOC(=O)c1cnc(SCCC(N)=O)nc1N	< 4.00	–
Cc1nc2ccccc2cc1C(=O)OCC(=O)c1c(N)n(C)c(=O)[nH]c1=O	< 4.00	–
Cc1ccc(Nc2nc(N)nc(CSCCO)n2)cc1	4.77	–
CCOC(=O)c1cc(-c2ccc(Br)cc2)cc2c(N)sc(Br)c12	< 4.00	–
COc1ccc(-n2ccnc2SCC(=O)c2c(N)n(C3CC3)c(=O)[nH]c2=O)cc1	4.60	–
Nc1c(C(=O)Nc2ccccc2F)sc2nc3c(cc12)C(=O)CCC3	6.52	–
Nc1c(Oc2ccccc2)ccc2c1C(=O)c1ccccc1C2=O	6.00	–
N#CC1=C(NC(=O)CSc2ncc(C#N)c(N)n2)SC2CCCCC12 (stereo unspecified)	5.21	–
Nc1c(C(=O)Nc2ccccc2Cl)sc2ncccc12	< 4.00	–
Cc1ccc(Nc2nc(N)nc(CSC(C)C(=O)N3CCCCCC3)n2)cc1 (stereo unspecified)	4.48	–
Nc1c(C(=O)Nc2ccc(F)cc2)sc2nc3c(cc12)N1CCC3CC1	< 4.00	–
COc1ccc(N)c2c1C(=O)c1ccccc1C2=O	6.28	–
NC1=C(Nc2cccc(C(F)(F)F)c2)C(=O)c2ccccc2C1=O	6.25	–
Nc1c(C(=O)Nc2ccc([N+](=O)[O-])cc2)sc2nc3c(cc12)CCCC3	4.82	–
Nc1c(Nc2ccccc2C(=O)O)c2ccccc2oc1=O	< 4.00	–
CC(=O)c1snc(Nc2cc(Cl)ccc2F)c1N	4.39	–
Cc1cccc(NC2=C(N)C(=O)c3ccccc3C2=O)c1	6.10	–
COc1ccc(Cl)cc1Nc1nc(N)nc(-c2oc3ccccc3c2C)n1	7.49	inhibition (Adenosine receptor A2a [2]): 80%

Structure (SMILES)	pKi (Adenosine receptor A2a [1])	other results
CN1CCc2nc3sc(C(=O)Nc4ccc(Cl)cc4)c(N)c3cc2C1	5.57	–
Cc1ccc2oc(=N)c3c(N)nc(-c4ccc5c(c4)OCO5)cc3c2c1	< 4.00	–
Nc1ccc(N)c2c1C(=O)c1ccccc1C2=O	6.49	–
Nc1c(C(=O)c2ccccc2)oc2ccc(Br)cc12	5.66	–
Nc1c(C(=O)Nc2ccc(Cl)cc2)sc2ncccc12	5.16	–
Nc1ncnc2[nH]c(SCCC(=O)O)nc12	< 4.00	–
Nc1c(Sc2ccccc2)cc(Sc2ccccc2)c2c1C(=O)c1ccccc1C2=O	5.72	–
N#Cc1c(N)nc2c(C(N)=O)c(Nc3ccccc3)sc2c1-c1ccccc1	6.20	–
Cc1ccc(Nc2nc(N)nc(CSC(C)C(=O)NCc3ccccc3Cl)n2)cc1 (stereo unspecified)	5.22	–
Nc1c(/C=N/c2ccccc2)ccc2c1C(=O)c1ccccc1C2=O	< 4.00	–
Nc1nc(CSc2nnc(N)s2)nc(Nc2ccc(F)cc2)n1	4.89	–
Nc1nc(CSc2nnc3ccccn23)nc(Nc2ccc(F)cc2)n1	< 4.00	–
COc1ccc(Nc2nc(N)nc(CSc3nnc(N)s3)n2)cc1	4.85	–
Cc1cc2oc(N)c(C=O)c(=O)c2cc1C	< 4.00	–
Nc1ncnc2sc3c(c12)CCN(C(=O)CN1CSCC1=O)C3	< 4.00	–
Nc1c(C(=O)Nc2nccs2)sc2nc3c(cc12)C(=O)CCC3	6.00	–
Cc1ccc(Nc2nc(N)nc(CN3C(=O)NC4(CCCCC4)C3=O)n2)cc1	5.55	–
Nc1cccc2c1C(=O)c1ccccc1C2=O	5.49	–
CCCc1ccc2c(N)c(C(=O)c3ccccc3)sc2n1	5.89	–
Cc1ccccc1NC(=O)CSCc1nc(N)nc(Nc2ccccc2C)n1	< 4.00	–
CC(=O)c1ccc(NC(=O)c2sc3nc4c(cc3c2N)CCCC4)cc1	< 4.00	–
CCOC(=O)c1cnc(SCC(=O)O)nc1N	< 4.00	–
N#Cc1c(N)nc2c(oc3ccccc32)c1-c1ccccc1	7.22	inhibition (Adenosine receptor A2a [3]): 91%
COCCOC(=O)c1sc(N)c(C#N)c1C	4.77	–
CC(=O)Oc1cccc(-c2nc(C(N)=O)c(N)o2)c1	4.44	–
Cn1c(=O)cc2c3c(c(N)ccc31)C(=O)c1ccccc1-2	6.19	–
CC(Sc1nc(N)c(C(=O)Nc2ccccc2)cc1C#N)C(=O)NCc1ccccc1Cl (stereo unspecified)	< 4.00	–

— ChEMBL document CHEMBL1156885, “Structure-based discovery of novel chemotypes for adenosine A(2A) receptor antagonists” (J Med Chem, 2010)
